From patent publication US8754113B2, “Oxadiazole derivative having endothelial lipase inhibitory activity” (Shionogi & Co., Ltd., priority 2009, dated 2014)

Target: human endothelial lipase (EL) (Homo sapiens (Human), UniProt Q9Y5X9)
Experiment: Human endothelial lipase (EL) inhibitory activity using human HDL (NEFA release)
Assay type: biochemical
Settings: human HDL 2 mg/ml substrate, 4-hour reaction at 37° C., NEFA readout; read-out: IC50 (50% inhibitory concentration), EL inhibitory activity
Protocol: Evaluation Method of Human Endothelial Lipase (EL) Inhibitory Activity Using Human High-Density Lipoprotein (HDL)
After the present compound dissolved in DMSO was added to become 0.5% DMSO to the reaction buffer consisting of 20 mM tris hydrochloric acid (pH7.4), bovine serum albumin (0.5%), calcium chloride (4 mM), sodium chloride (150 mM) and human HDL (2 mg/ml), the EL enzyme was added (total volume was 20 μl).
After 4-hour reaction at 37° C., non-esterified fatty acid (NEFA) generated from HDL by EL was measured with a commercially available assay kit and the amount of NEFA was used as an index of enzyme activity.

Sequence of human endothelial lipase (EL) (Q9Y5X9 21-500): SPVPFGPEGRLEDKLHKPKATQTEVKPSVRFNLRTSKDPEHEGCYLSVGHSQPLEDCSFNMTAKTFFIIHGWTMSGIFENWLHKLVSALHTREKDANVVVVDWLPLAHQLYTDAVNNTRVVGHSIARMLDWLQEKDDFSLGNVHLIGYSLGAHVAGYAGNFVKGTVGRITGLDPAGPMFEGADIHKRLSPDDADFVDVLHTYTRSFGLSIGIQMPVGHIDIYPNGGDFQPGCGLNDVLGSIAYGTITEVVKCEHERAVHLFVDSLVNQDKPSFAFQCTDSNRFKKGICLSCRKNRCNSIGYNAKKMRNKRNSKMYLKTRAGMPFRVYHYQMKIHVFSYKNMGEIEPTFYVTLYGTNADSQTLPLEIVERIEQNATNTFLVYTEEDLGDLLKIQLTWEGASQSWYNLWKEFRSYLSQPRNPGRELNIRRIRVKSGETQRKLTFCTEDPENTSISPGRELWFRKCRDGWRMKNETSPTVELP

| Compound | IC50 [nM] |
| --- | --- |
| Cc1ccc(-c2ccc3nc(Cc4nnc(CC(=O)NC5(C#N)CC5)o4)sc3n2)s1 [Compound A-14] | 160 |
| N#CC1(NC(=O)Cc2nnc(Cc3nc4ccc(-c5ccccc5)c(Cl)c4s3)o2)CC1 [Compound A-17] | 41 |
| Cn1cc(-c2ccc3nc(Cc4nnc(CC(=O)NC5(C#N)CC5)o4)sc3n2)cn1 [Compound A-19] | 110 |
| Cn1cc(-c2ccc3nc(Cc4nnc(CC(=O)NC5(C#N)CC5)o4)sc3c2Cl)cn1 [Compound A-21] | 65 |
| COc1cc(-c2cnn(C)c2)cc2sc(Cc3nnc(CC(=O)NC4(C#N)CC4)o3)nc12 [Compound A-25] | 42 |
| O=C(O)Cc1nnc(Cc2nc3ccc(-c4ccccc4)cc3s2)o1 [Compound I-1-2] | 120 |
| N#CCNC(=O)Cc1nnc(Cc2nc3ccc(-c4ccccc4)cc3s2)o1 [Compound I-1-3] | 26 |
| O=C(O)CCc1nnc(Cc2nc3ccc(-c4ccccc4)cc3s2)o1 [Compound I-1-9] | 260 |
| CS(=O)(=O)NCc1nnc(Cc2nc3ccc(-c4ccccc4)cc3s2)o1 [Compound I-1-23] | 73 |
| N#CCCc1nnc(Cc2nc3ccc(-c4ccccc4)cc3s2)o1 [Compound I-1-27] | 85 |
| O=C(Cc1nnc(Cc2nc3ccc(-c4ccccc4)cc3s2)o1)NCCO [Compound I-1-31] | 83 |
| N#CCNC(=O)Cc1nnc(Cc2nc3cc(-c4ccccc4)ccc3o2)o1 [Compound I-1-43] | 390 |
| O=C(Cc1nnc(Cc2nc3ccc(-c4ccccc4)cc3s2)o1)N1CCOCC1 [Compound I-1-82] | 52 |
| N#CCNC(=O)Cc1nnc(Cc2nc3c(Br)cccc3s2)o1 [Compound I-2-196] | 36 |
| N#CCNC(=O)Cc1nnc(Cc2ccc3cc(-c4ccccc4)ccc3n2)o1 [Compound I-2-204] | 190 |
| N#CCNC(=O)Cc1nnc(Cc2cnc3cc(-c4ccccc4)ccc3n2)o1 [Compound I-2-215] | 2500 |
| N#CCNC(=O)Cc1nnc(Cc2ccc(-c3ccccc3)cn2)o1 [Compound I-2-216] | 23000 |
| O=C(Cc1nnc(Cc2nc3ccc(-c4ccc(F)cc4)cc3s2)o1)NC1(CO)CC1 [Compound I-3-6] | 52 |
| O=C(Cc1nnc(Cc2nc3c(-c4ccccc4)cccc3s2)o1)NC1(CO)CC1 [Compound I-3-12] | 78 |
| N#CCNC(=O)Cc1nnc(C(F)(F)c2nc3ccc(-c4ccccc4)cc3s2)o1 [Compound I-3-21] | 250 |
| O=C(Cc1nnc(Cc2nc3ccc(-c4ccccc4)cc3s2)o1)N1CC(O)C1 [Compound I-3-23] | 400 |
| O=C(Cc1nnc(Cc2nc3ccc(-c4ccccc4)cc3s2)o1)NC1COC1 [Compound I-3-30] | 46 |
| N#CC1(NC(=O)Cc2nnc(Cc3nc4ccc(-c5cc6ccccc6s5)cc4s3)o2)CC1 [Compound I-3-93] | 28 |
| N#CC1(NC(=O)Cc2nnc(Cc3nc4ccc(-c5ncc(F)cn5)cc4s3)o2)CC1 [Compound I-3-112] | 44 |
| N#CC1(NC(=O)Cc2nnc(Cc3nc4ccc(-c5ncccn5)cc4s3)o2)CC1 [Compound I-3-145] | 69 |

Continued, values first:

| IC50 [nM] | Compound |
| --- | --- |
| 11 | Cc1ccc(-c2ccc3nc(Cc4nnc(CC(=O)NC5(C#N)CC5)o4)sc3c2F)s1 [Compound A-9] |
| 8 | N#CC1(NC(=O)Cc2nnc(Cc3nc4cnc(-c5ccccc5)cc4s3)o2)CC1 [Compound A-10] |
| 22 | N#CC1(NC(=O)Cc2nnc(Cc3nc4ccc(-c5ccc(Cl)cc5)c(F)c4s3)o2)CC1 [Compound A-13] |
| 19 | O=C(NCCc1nnc(Cc2nc3ccc(-c4ccccc4)cc3s2)o1)C1CC1 [Compound I-1-7] |
| 5 | O=C(Cc1nnc(Cc2nc3ccc(-c4ccccc4)cc3s2)o1)Nc1ccccc1 [Compound I-1-83] |
| 6 | NS(=O)(=O)NCc1nnc(Cc2nc3ccc(-c4ccccc4)cc3s2)o1 [Compound I-1-85] |
| 12 | N#CCNC(=O)Cc1nnc(Cc2nc3c(-c4ccccc4)cccc3s2)o1 [Compound I-2-197] |
| 15 | Cn1ccc(-c2ccc3nc(Cc4nnc(CC(=O)NC5(C#N)CC5)o4)sc3c2)n1 [Compound I-2-198] |
| 11 | N#CC1(NC(=O)Cc2nnc(Cc3nc4ccc(-c5ccccn5)cc4s3)o2)CC1 [Compound I-3-1] |
| 4 | Cn1cc(-c2ccc3sc(Cc4nnc(CC(=O)NC5(C#N)CC5)o4)nc3c2)cn1 [Compound I-3-4] |
| 9 | N#CC1(NC(=O)Cc2nnc(Cc3nc4c(-c5ccccc5)cccc4s3)o2)CC1 [Compound I-3-11] |
| 2 | CC(C#N)NC(=O)Cc1nnc(Cc2nc3ccc(-c4ccccc4)cc3s2)o1 (stereo not drawn) [Compound I-3-37] |
| 14 | N#CC1(NC(=O)Cc2nnc(Cc3nc4ccc(Cc5ccc(F)cc5)cc4s3)o2)CC1 [Compound I-3-41] |
| 8 | N#CC1(NC(=O)Cc2nnc(Cc3nc4ccc(C5=CCOCC5)cc4s3)o2)CC1 [Compound I-3-48] |
| 4 | N#CC1(NC(=O)Cc2nnc(Cc3nc4ccc(-c5ccc(Cl)s5)cc4s3)o2)CC1 [Compound I-3-56] |
| 27 | N#CC1(NC(=O)Cc2nnc(Cc3nc4ccc(-c5ccc(Cl)cn5)cc4s3)o2)CC1 [Compound I-3-146] |
| 9 | N#CC1(NC(=O)Cc2nnc(Cc3nc4ccc(-c5ccc(F)s5)cc4s3)o2)CC1 [Compound I-3-163] |
